According to patent publication US4020111A, “Propynyloxy alkyl arene insecticides” (priority 1975, dated 1977):
Where “and” joins values, the source holds several entries; their conditions need not be identical. Identical values can stand only once.

Legend:
mice [1] = assay: synergism of acute toxicity of Dimetilan, GS 13005, Secobarbital and Methadone (intraperitoneal); format: in vivo, Swiss albino white male mice; conditions: for number of mice dead: 48 hours, of eight mice
Summary of the method: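 Male Swiss albino mice (5–6 weeks, 23–27 g), eight per dose; synergist in corn oil given i.p. 1 h before i.p. insecticide or drug (drugs in distilled water). Lethality recorded over at least 6 h; controls received corn oil plus agent alone.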

[2] = test system: Wilson strain house flies; format: in vivo, house fly (susceptible Wilson strain); conditions: for Contact Synergistic Ratio, Carbaryl (LC50 insecticide alone / LC50 with synergist): in vivo; for Contact Synergistic Ratio, Pyrolan (LC50 insecticide alone / LC50 with synergist): synergist to insecticide 5:1 by weight, 24 h
Experimental: The required solutions of the insecticide and of the synergist compound were prepared in acetone at a concentration of one milligram per milliliter. One-pint wide mouth glass jars were coated wiith the appropriate insecticide-synergist combination by rolling the jars containing aliquots of the appropriate solutions diluted to three milliliters with acetone to deposit, by evaporation, a film of the test materials. The flies were transferred under carbon dioxide anesthesia and held in the jar at room temperature. Perforated aluminum foil was used to cover the jars and to hold cotton saturated with 10% sugar solution. Counts were made at intervals, but the recorded mortality was based on 24-hour kill, rather than knockdown. All prostrate nonmoving flies were considered dead. A determination was then made of the contact synergistic ratio [SR], which is the ratio of the LC50 of insecticide alone to the LC50 of the insecticide when applied together with the synergist. The LC50 of the insecticide was estimated from a log-probit plot of percent kill versus dosage. […] The LC50 of the combination of insecticide and synergist was determined at a synergist to insecticide parts by weight ratio of five to one.

mice [3] = assay: extension of Secobarbital sleeping time by synergists; format: in vivo, Swiss albino white male mice; conditions: Secobarbital 37 mg/K; for Relative Sleeping Time: treated/control
Summary of the method: (§1)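 Swiss albino male mice (~38 days, 25-30 g) given synergist at 74.0 or 110.0 mg/kg in corn oil 1 h before Secobarbital 37.0 mg/kg or Noludar 110.0 mg/kg in water. Sleeping time measured from drug dosing to righting-reflex recovery; relative sleeping time = treated ÷ drug-only control.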

[4] = test system: German male cockroaches (Blatella Germanicus); assay: topical application to thorax, 24 hour mortality of German male cockroaches; format: in vivo, German cockroach (Blatella Germanicus); conditions: for 24 hour mortality: Mobam alone
Experimental: The synergistic effect with mobam of synergist compounds I-B, II-H, II-K and IV-C is further illustrated by the 24 hour mortality data of German male cockroaches (Blatella Germanicus) shown in Table XXXX. The synergists and insecticide were diluted in acetone and applied in small droplets to the thorax of the insect. These doses of synergist alone gave zero percent insect mortality.
The synergistic effect with GS 13005 of compounds I-B, II-H, II-K, II-P, II-Q, II-R and IV-C is illustrated by the 24 hour mortality of German male cockroaches shown in Table XXXXI. These doses of synergist alone caused zero percent insect mortality.

mice [5] = assay: extension of Noludar sleeping time by synergists; format: in vivo, Swiss albino white male mice; conditions: Noludar 110 mg/K, synergist 110 mg/K; for Relative Sleeping Time: treated/control
Summary of the method: as §1

mice [6] = assay: acute toxicity of Dimetilan alone and of synergist alone (intraperitoneal); format: in vivo, Swiss albino white male mice; conditions: synergist alone 1000 mg/kg ip, 72 hours, of eight mice
Experimental: To determine the acute toxicity of dimetilan alone, eight dosage levels of Dimetilan, ranging from 4 to 32 mg per kg wer applied to eight, Swiss, albino, white, male mice per dosage level. The mice weighed approximately 23 to 27 grams and were five to size weeks old. The Dimetilan was administered intraperitoneally in 0.1 ml of corn oil one hour after the administration of the same dose of corn oil alone.
To determine the acute toxicity of the synergist alone, various synergists were administered intraperitoneally at a dose of 1000 mg/kg to each of a group of eight mice. The number of animals dead at the end of 72 hours is reported in the left hand column of Table XXXXVI.

[7] = test system: Rutgers A strain house flies; assay: topical application test, percent kill after 24 hours, Rutgers A strain; format: in vivo, house fly (resistant Rutgers A strain)
Experimental: In Table IX, and in the tables following it, the doses of topically applied insecticides and of synergists unless otherwise noted are expressed as micrograms per fly (μg/fly).
The synergistic effect of O-(2-propynyl) oximes with mobam was determined from topical application tests on susceptible, female, IN/WHO strain house flies and from tests on resistant, female, Rutgers A strain house flies. The synergist and insecticide were dissolved in ACS Grade acetone in such quantities that a 1.0μ liter volume applied to the thorax of 3-to-5 day old CO2 -anesthetized female adult house flies contained the desired dosage. After being treated, the flies were confined, 10 to a plaster petri dish, with 3-5 dishes/treatment, and held for 24-hr. observation of mortality. Reconstituted skim milk on cotton dental wicks was provided during the holding period. The percent kills after 24 hours are shown in Table X for the IN/WHO strain and Table XI for the Rutgers A strain.
The synergistic effect of benzyl 2-propynyl ethers with mobam was determined from topical application tests on IN/WHO and Rutgers A strain houseflies, following the procedure of Example 5. The percent kills after 24 hours are shown in Table XIV for the IN/WHO strain and in Table XV for the Rutgers A strain.
The synergistic effect with Diazinon of compounds I-B, I-D, I-F, I-G, I-H and I-I, identified in Tables I and Ia, was determined from topical application tests on IN/WHO strain houseflies and on Rutgers A strain houseflies by the procedure of Example 5. The percent kills after 24 hours are shown in Table XXV for the IN/WHO strain and Table XXVI for the Rutgers A strain.
The synergistic effect with GS 13005 of compounds I-A, I-B, I-D, I-E, I-F, I-G and I-I was determined from topical application tests to IN/WHO strain, Rutgers A strain and polyvalent CH strain houseflies using the procedures of Example 5. The percent kills of the IN/WHO strain flies after 24 hours are shown in Table XXVIII; of the Rutgers A strain, in Table XXIX; and of the polyvalent CH strain, in Table XXX. The doses of insecticide alone to the CH strain files caused 10-40% mortality.
The synergistic effect with Diazinon and GS 13005 of various of the benzyl 2-propynyl ethers identified in Tables II and IIa was determined by topical application tests on IN/WHO strain, and Rutgers A strain and polyvalent, resistant, CH strain houseflies using the procedures of Example 5. The percent kills after 24 hours of IN/WHO strain flies are shown in Table XXXI; of Rutgers A strain flies, in Table XXXII; and of CH strain flies, in Table XXXIII. The doses of insecticide alone to the CH strain flies caused 10-40% mortality.
The synergistic effect on IN/WHO strain flies and Rutgers A strain flies of compound IV-C with GS 13005 and with Diazinon was determined by the topical application procedure of Example 5. The percent kills of IN/WHO strain flies after 24 hours are shown in Tables XXXVI and XXXVII; the percent kills of Rutgers A strain flies are shown in Tables XXXVIII and XXXIX.

[8] = test system: IN/WHO strain house flies; assay: topical application test, percent kill after 24 hours, IN/WHO strain; format: in vivo, house fly (susceptible IN/WHO strain)
Summary of the method: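 Susceptible female IN/WHO house flies, 3–5 days old, CO2-anesthetized, received synergist plus insecticide in acetone (1.0 μL) on the thorax; doses in μg/fly. Flies held 10 per dish, 3–5 dishes/treatment, with skim milk; mortality (percent kill) read at 24 h.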

[9] = Dimetilan 8 mg/kg + synergist 80 mg/kg ip
[10] = Dimetilan 8 mg/kg + synergist 240 mg/kg ip
[11] = synergist alone at doses of Table XXXX
[12] = synergist alone at doses of Table XXXXI
[13] = GS 13005 71 mg/kg + synergist 213 mg/kg
[14] = Methadone 32 mg/kg + synergist 215 mg/kg
[15] = Secobarbital 90 mg/kg + synergist 215 mg/kg

| SMILES | number of mice dead (mice [1]; [9]) | number of mice dead (mice [1]; [10]) | Contact Synergistic Ratio, Carbaryl (LC50 insecticide alone / LC50 with synergist) [2] | Contact Synergistic Ratio, Pyrolan (LC50 insecticide alone / LC50 with synergist) [2] | Mean Sleeping Time (mice [3]; synergist 74 mg/K) [min] | Relative Sleeping Time (mice [3]; synergist 74 mg/K) | Mean Sleeping Time (mice [3]; synergist 110 mg/K) [min] | Relative Sleeping Time (mice [3]; synergist 110 mg/K) | insect mortality, synergist alone [4, 11] | insect mortality, synergist alone [4, 12] | Mean Sleeping Time (mice [5]) [min] | Relative Sleeping Time (mice [5]) | mice lethality (number dead) (mice [1]; [13]) | number of mice dead (mice [6]) | mice lethality (number dead) (mice [1]; [14]) | mice lethality (number dead) (mice [1]; [15]) | other results |
| --- | --- | --- | --- | --- | --- | --- | --- | --- | --- | --- | --- | --- | --- | --- | --- | --- | --- |
| C#CCON=Cc1cccc([N+](=O)[O-])c1 [I-B] | 1 | 6 | 270 | 35 | 54 | 1.5 | 106 | 1.7 | zero | zero | 70 | 2.4 | – | – | – | – | – |
| C#CCOCc1ccc([N+](=O)[O-])cc1 [II-Q, 4-nitrobenzyl 2-propynyl ether] | – | 1 | – | – | 30 | 1.1 | 73 | 1.6 | – | zero | 41 | 2.1 | 6 | 7 | – | – | – |
| C#CCOCc1c(Cl)cccc1Cl [II-H] | 0 | 6 | 300 | 40 | 44 | 1.4 | 51 | 2.1 | zero | zero | 68 | 2.2 | 7 | 0 | 4 | 0 | – |
| CNC(=O)Oc1cccc2sccc12 [Mobam, 4-benzo(b) thienyl-N-methylcarbamate, reference compound] | – | – | – | – | – | – | – | – | – | – | – | – | – | – | – | – | 24 hour mortality ([4]; dose 0.12): 10%; 24 hour mortality ([4]; dose 0.16): 30%; percent kill after 24 hours ([7]; Mobam alone 0.15 μg/fly): 0%; percent kill after 24 hours ([7]; Mobam alone 0.30 μg/fly): 0%; percent kill after 24 hours ([7]; Mobam alone 0.40 μg/fly): 7%; percent kill after 24 hours ([7]; Mobam alone 0.60 μg/fly): 4%; percent kill after 24 hours ([8]; Mobam alone 0.05 μg/fly): 0%; percent kill after 24 hours ([8]; Mobam alone 0.10 μg/fly): zero; percent kill after 24 hours ([8]; Mobam alone 0.10 μg/fly, 1440 min): 0%; percent mortality 24 hours ([8]; Mobam alone 0.13 μg/fly): 0%; percent kill after 24 hours ([8]; Mobam alone 0.20 μg/fly, 1440 min): 2%; percent mortality 24 hours ([8]; Mobam alone 0.50 μg/fly, 1440 min): 83%; percent mortality 24 hours ([8]; Mobam alone 1.0 μg/fly, 1440 min): 73% and 93%; change in lethality on doubling dose of mobam alone ([8]; mobam alone 0.05 to 0.10 mg/fly (so in the source)): no increase in lethality |
| C#CCOCc1ccccc1[N+](=O)[O-] [II-P, 2-nitrobenzyl 2-propynyl ether] | – | 0 | – | – | – | – | 46 | 1.0 | – | zero | 44 | 1.5 | 6 | 2 | 0 | 0 | – |
